Laboratory results: paper PMC6684654 (Nature Communications, 2019)
≈ marks a conversion by molar mass, not a printed value.

What was measured:
Format in all cases: cell-based
[1] = system: NDM-1 K. pneumoniae XJ155019; experiment: MIC, broth microdilution; conditions: Klebsiella pneumoniae, 16 h
Description: (§1) MIC values were identified through microdilution in sterilized 96-well polypropylene microtiter plates according to the broth microdilution guideline of the Clinical and Laboratory Standards Institute[30]. The test medium was Mueller–Hinton broth (MHB), and the strain concentrations were adjusted to 5 × 10^5 CFU/mL.

E. coli ATCC35218 = experiment: MIC, broth microdilution; conditions: Escherichia coli, ATCC35218; MHB, 5 × 10^5 CFU/mL, 16 h, 37 °C; read-out: MIC
Description: as §1

K. pneumoniae ATCC13883 [2] = experiment: MIC, broth microdilution; conditions: Klebsiella pneumoniae, ATCC13883; MHB, 5 × 10^5 CFU/mL, 16 h, 37 °C; read-out: MIC
Description: as §1

NDM-1 E. coli XJ141026 [3] = experiment: MIC, broth microdilution; conditions: Escherichia coli, 16 h
Description: as §1

[4] = system: NDM-1 K. pneumoniae XJ155018; experiment: MIC, broth microdilution; conditions: Klebsiella pneumoniae, 16 h
Description: as §1

NDM-1 E. coli XJ141015 [5] = experiment: MIC, broth microdilution; conditions: Escherichia coli, 16 h
Description: as §1

NDM-1 E. coli XJ141047 [6] = experiment: MIC, broth microdilution; conditions: Escherichia coli, 16 h
Description: as §1

[7] = system: NDM-1 K. pneumoniae XJ155020; experiment: MIC, broth microdilution; conditions: Klebsiella pneumoniae, 16 h
Description: as §1

[8] = system: NDM-1 K. pneumoniae XJ155017; experiment: MIC, broth microdilution; conditions: Klebsiella pneumoniae, 16 h
Description: as §1

E. coli ATCC25922 [9] = experiment: MIC, broth microdilution; conditions: Escherichia coli, ATCC25922; MHB, 5 × 10^5 CFU/mL, 16 h, 37 °C; read-out: MIC
Description: as §1

[10] = system: NDM-1 K. pneumoniae XJ155019; experiment: Antibiotic susceptibility (MIC), automated identification system; conditions: Supplementary Table 2; for MIC: Klebsiella pneumoniae
Description: (§2) Clinical isolate strains were identified and screened by the Phoenix 100 automated bacterial identification system to rapidly detect antimicrobial resistance. Total DNA was extracted by the TIANamp Bacteria DNA Kit according to the manufacturer’s protocol. The presence of blaNDM-1 was confirmed using a diagnostic kit for NDM-1 (Puruikang Bio Inc., Shenzhen, China) based on fluorescent quantitative polymerase chain reaction assay. According to the instruction, Ct values of less than 37 were considered positive.

K. pneumoniae ATCC13883 [11] = experiment: as above; conditions: Supplementary Table 2; for MIC: Klebsiella pneumoniae, ATCC13883
Description: as §2

NDM-1 E. coli XJ141026 [12] = experiment: as above; conditions: Supplementary Table 1; for MIC: Escherichia coli
Description: as §2

[13] = system: NDM-1 K. pneumoniae XJ155018; experiment: as above; conditions: Supplementary Table 2; for MIC: Klebsiella pneumoniae
Description: as §2

NDM-1 E. coli XJ141015 [14] = experiment: as above; conditions: Supplementary Table 1; for MIC: Escherichia coli
Description: as §2

NDM-1 E. coli XJ141047 [15] = experiment: as above; conditions: Supplementary Table 1; for MIC: Escherichia coli
Description: as §2

[16] = system: NDM-1 K. pneumoniae XJ155020; experiment: as above; conditions: Supplementary Table 2; for MIC: Klebsiella pneumoniae
Description: as §2

[17] = system: NDM-1 K. pneumoniae XJ155017; experiment: as above; conditions: Supplementary Table 2; for MIC: Klebsiella pneumoniae
Description: as §2

E. coli ATCC25922 [18] = experiment: as above; conditions: Supplementary Table 1; for MIC: Escherichia coli, ATCC25922
Description: as §2

[19] = system: NDM-1 K. pneumoniae XJ155019; experiment: Kirby Bauer disc diffusion
Description: (§3) Supplementary Ta b l e 2. Identification and anti biotic susceptibility of NDM-1-producing K. pneumonia strains.
(§4) Antibiotics NDM-1 NDM-1 NDM-1 NDM-1 […]
(§5) Cefoperazone/ sul bact am KB 32 (S) 7 (R) 7 (R) 7 (R) 7 (R)
(§6) Nitrofurantoi n KB 21 (S) 7 (R) 9 (R) 10 (R) 9 (R) […]
(§7) R, resistant; S, sensitive; M IC , minimum inhibitory concentration; KB, Kirb y Baue r disc diffusion method .
(§8) The unit of M IC is “μg/mL”. The unit of KB is “mm”.

K. pneumoniae ATCC13883 [20] = experiment: Kirby Bauer disc diffusion
Description: as §3, §4, §5, §6, §7, §8

[21] = system: NDM-1 K. pneumoniae XJ155018; experiment: Kirby Bauer disc diffusion
Description: as §3, §4, §5, §6, §7, §8

[22] = system: NDM-1 K. pneumoniae XJ155020; experiment: Kirby Bauer disc diffusion
Description: as §3, §4, §5, §6, §7, §8

[23] = system: NDM-1 K. pneumoniae XJ155017; experiment: Kirby Bauer disc diffusion
Description: as §3, §4, §5, §6, §7, §8

NDM-1 E. coli XJ141026 [24] = experiment: Kirby Bauer disc diffusion
Description: (§9) Supplementary Table 1. Identification and antibiotic susceptibility of NDM-1-producing E. coli strains. […]
(§10) Cefoperazone/ sul bact am KB — — 7 (R) 7 (R) 7 (R)
(§11) Nitrofurantoi n KB — — 14 (R) 17 (R) 19 (S) […]
(§12) R, resistant; S, sensitive; M IC , minimum inhibitory concentration; KB, Kirb y Bauer disc diffusion method.
(§13) The unit of M IC is “ μ g/ mL”. The unit of KB is “ mm” .

NDM-1 E. coli XJ141015 [25] = experiment: Kirby Bauer disc diffusion
Description: as §9, §10, §11, §12, §13

NDM-1 E. coli XJ141047 [26] = experiment: Kirby Bauer disc diffusion
Description: as §9, §10, §11, §12, §13

[27] = MHB, 5 × 10^5 CFU/mL, 37 °C, read-out: MIC
[28] = Klebsiella pneumoniae, read-out: KB disc diffusion
[29] = Escherichia coli, read-out: KB disc diffusion

Row | Compound | MIC (E. coli ATCC35218) [µg/mL] | MIC (K. pneumoniae ATCC13883 [2]) [µg/mL] | MIC (E. coli ATCC25922 [9]) [µg/mL] | MIC [10] [µg/mL] | susceptibility class (MIC) [10] | MIC (K. pneumoniae ATCC13883 [11]) [µg/mL] | susceptibility class (MIC) (K. pneumoniae ATCC13883 [11]) | MIC (NDM-1 E. coli XJ141026 [12]) [µg/mL] | susceptibility class (MIC) (NDM-1 E. coli XJ141026 [12]) | MIC [13] [µg/mL] | susceptibility class (MIC) [13] | MIC (NDM-1 E. coli XJ141015 [14]) [µg/mL] | susceptibility class (MIC) (NDM-1 E. coli XJ141015 [14]) | MIC (NDM-1 E. coli XJ141047 [15]) [µg/mL] | susceptibility class (MIC) (NDM-1 E. coli XJ141047 [15]) | MIC [16] [µg/mL] | susceptibility class (MIC) [16] | MIC [17] [µg/mL] | susceptibility class (MIC) [17] | MIC (E. coli ATCC25922 [18]) [µg/mL] | other results
1 | CCN1CCN(C(=O)N[C@@H](C(=O)N[C@@H]2C(=O)N3[C@@H]2SC(C)(C)[C@@H]3C(=O)O)c2ccccc2)C(=O)C1=O [Piperacillin] | > 256 | 8 (≈ 15.5 µM) | 2 (≈ 3.86 µM) | > 64 | R | 8 (≈ 15.5 µM) | S | > 64 | R | > 64 | R | > 64 | R | > 64 | R | > 64 | R | > 64 | R | ≤ 4 | MIC [1, 27]: > 256 µg/mL; MIC (NDM-1 E. coli XJ141026 [3]; [27]): > 256 µg/mL; MIC [4, 27]: > 256 µg/mL; MIC (NDM-1 E. coli XJ141015 [5]; [27]): > 256 µg/mL; MIC (NDM-1 E. coli XJ141047 [6]; [27]): > 256 µg/mL; MIC [7, 27]: > 256 µg/mL; MIC [8, 27]: > 256 µg/mL; susceptibility class (MIC) (E. coli ATCC25922 [18]): S
2 | CC(C)(O/N=C(\C(=O)N[C@@H]1C(=O)N2C(C(=O)[O-])=C(C[n+]3ccccc3)CS[C@H]12)c1csc(N)n1)C(=O)O [Ceftazidime] | < 0.125 | < 0.125 | < 0.125 | > 16 | R | ≤ 1 | S | > 16 | R | > 16 | R | > 16 | R | > 16 | R | > 16 | R | > 16 | R | ≤ 1 | MIC [1]: > 256 µg/mL; MIC (NDM-1 E. coli XJ141026 [3]): > 256 µg/mL; MIC [4]: > 256 µg/mL; MIC (NDM-1 E. coli XJ141015 [5]): > 256 µg/mL; MIC (NDM-1 E. coli XJ141047 [6]): > 256 µg/mL; MIC [7]: > 256 µg/mL; MIC [8]: > 256 µg/mL; susceptibility class (MIC) (E. coli ATCC25922 [18]): S
3 | O=C1CN(/N=C/c2ccc([N+](=O)[O-])o2)C(=O)N1 [Nitrofurantoin] | – | – | – | – | – | – | – | – | – | – | – | – | – | – | – | – | – | – | – | – | susceptibility class (KB) [19]: R; Kb [19, 28]: 10 mM; susceptibility class (KB) (K. pneumoniae ATCC13883 [20]): S; inhibition zone diameter (K. pneumoniae ATCC13883 [20]; Klebsiella pneumoniae, ATCC13883, read-out: KB disc diffusion): 21 mM; susceptibility class (KB) [21]: R; inhibition zone diameter [21, 28]: 9 mM; susceptibility class (KB) [22]: R; disc diffusion inhibition zone diameter [22, 28]: 9 mM; susceptibility class (KB) [23]: R; inhibition zone diameter (Kirby-Bauer disc diffusion) [23, 28]: 7 mM; susceptibility class (KB) (NDM-1 E. coli XJ141026 [24]): R; Kb (NDM-1 E. coli XJ141026 [24]; [29]): 17 mM; susceptibility class (KB) (NDM-1 E. coli XJ141015 [25]): R; susceptibility class (KB) (NDM-1 E. coli XJ141047 [26]): S; inhibition zone diameter (NDM-1 E. coli XJ141047 [26]; [29]): 19 mM
